Results on 19 molecules are retold here after patent US11400081B2, “Compounds” (The University of Sheffield, priority 2017, dated 2022).

The test concerns the target T1, AM2 receptor (CALCRL+RAMP3) (Homo sapiens, UniProt O60896+Q16602).
T1 construct: host or cells: 1321N1
Briefly: AM2 receptor inhibition, LANCE TR-FRET cAMP agonist-antagonist competition assay. It is filed as cell-based. As to conditions: inhibition of AM induced cAMP activation; 1321N1 cells transfected with CALCRL+RAMP3; read-out: AM2 pIC50 (converted). The procedure:
Compounds were assessed for their ability to inhibit ligand-induced elevations of cAMP, using the Perkin Elmer LANCE cAMP assay using commercially-available cells expressing a specific receptor of interest using the following general procedure:
Compounds were prepared in dimethyl sulfoxide (DMSO—99.9% pure) (Sigma Aldrich, Cat #: D4540) added to powder stocks to produce a 20 mM solution (100% DMSO) that was sonicated at 37° C. for 10 minutes to fully dissolve the compounds. The 20 mM stocks were diluted further in DMSO to produce a 2 mM solution that was sonicated at 37° C. for 10 minutes. 2 mM stocks were dissolved in assay/stimulation buffer to produce a 400 μM solution that was sonicated at 37° C. for 10 minutes for all cAMP assays. All stocks were stored at −20° C. Then serial dilution (Dilution factor 10) was performed to achieve the desire experimental concentrations.
Competition assays were performed according to the manufactures instructions using LANCE® TR-FRET cAMP assay kit (Perkin Elmer, Cat #: AD0264). Serial dilutions (3 μl/well) of the molecules were plated in a 384-well OptiPlate (Perkin Elmer, Cat #: 6007299) in duplicates. Appropriate controls (100% stimulation: Forskolin and 0% stimulation: Vehicle control) (6 μl/well) were included in each plate for data normalization. Following the compound addition, 6 μl of G-protein coupled receptor overexpressing cells/Alexa Fluor antibody solution (1:100 dilution) was added in each well at a desired density of 2500 cells/well. The overexpressing cell lines were purchased from DiscoveRx, Birmingham, UK. After spinning the plate at 1000 rpm for 1 minute and vortexing briefly, the cells were pre-incubated with the compounds for 30 minutes at room temperature (covered). Then 3 μl of the equivalent peptide ligand (EC50 dose) was added to all the wells except vehicle and forskolin controls. The plate were then spun down at 1000 rpm for 1 minute and once finished they were vortexed briefly and covered. Cells were stimulated in the presence of the ligands for 15 minutes at room temperature. After stimulation 12 μl of detection mix (Europium-Chelate streptavidin/biotinylated cAMP tracer solution) was added to all wells and incubated for 60 minutes at room temperature. The plate was then read on the Enspire multimode Plate reader (Perkin Elmer), at; 320/340 nm excitation and 615/665 nm emission was recorded.
• 28 mL Hank's Balanced salt solution (+MgCl2, +CaCl2)—(Thermo Fisher Cat #:14170112) • 150 μl HEPES (1M)—(Thermo Fisher Cat #:15630080) • 400 μl Stabilizer (DTPA) Purified BSA (7.5%)—(Perkin Elmer, Cat #: CR84-100) • 60 μl IBMX (250 mM)—(Sigma Aldrich, Cat #: 15879) Specific cAMP/Agonist-Antagonist Competition Assays
The ability of a compound to inhibit the AM induced cAMP activation in AM2 receptor-expressing cells (1321N1 cells transfected with CALCRL+RAMP3, sourced from DiscoverX catalogue number 95-0169C6) was assessed using the protocol above.

T1 sequence (Q16602 23-461): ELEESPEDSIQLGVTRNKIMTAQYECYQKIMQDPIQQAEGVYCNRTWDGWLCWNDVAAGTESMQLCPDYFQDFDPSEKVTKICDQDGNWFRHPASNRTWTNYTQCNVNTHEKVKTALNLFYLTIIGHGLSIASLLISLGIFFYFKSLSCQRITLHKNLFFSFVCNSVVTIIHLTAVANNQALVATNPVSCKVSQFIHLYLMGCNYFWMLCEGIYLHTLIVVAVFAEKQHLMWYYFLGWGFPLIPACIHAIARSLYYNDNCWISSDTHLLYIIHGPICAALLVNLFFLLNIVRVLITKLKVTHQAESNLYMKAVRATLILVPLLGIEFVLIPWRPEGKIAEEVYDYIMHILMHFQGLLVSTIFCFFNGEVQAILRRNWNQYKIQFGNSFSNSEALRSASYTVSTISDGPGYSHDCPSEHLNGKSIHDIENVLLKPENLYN
T1 sequence (O60896 24-148): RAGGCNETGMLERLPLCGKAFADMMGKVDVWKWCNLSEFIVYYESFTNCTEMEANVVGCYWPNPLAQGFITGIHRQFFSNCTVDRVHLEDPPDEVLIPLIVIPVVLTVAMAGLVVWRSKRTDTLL

Turning to `CNCc1ccccc1CN(CC(=O)Nc1ccc2c(c1)CC1(C2)C(=O)Nc2ncccc21)C(=O)C1(C)COC1` (stereo not shown) [Example 58, 3-Methyl-N-(2-((methylamino)methyl)benzyl)-N-(2-oxo-2-((2′-oxo-1,1′,2′,3-tetrahydrospiro[indene-2,3′-pyrrolo[2,3-b]pyridin]-5-yl)amino)ethyl)oxetane-3-carboxamide], the IC50 is 15.1 nM.
Consider `CNCc1ccccc1CN(CC(=O)Nc1ccc2c(c1)CC1(C2)C(=O)Nc2ncccc21)C(=O)C(C)(C)OC` (stereo not shown) [Example 59, 2-Methoxy-2-methyl-N-(2-((methylamino)methyl)benzyl)-N-(2-oxo-2-((2′-oxo-1,1′,2′,3-tetrahydrospiro[indene-2,3′-pyrrolo[2,3-b]pyridin]-5-yl)amino)ethyl)propanamide], for which the IC50 was 9.33 nM.
Turning to `CNCc1ccccc1CN(CC(=O)Nc1ccc2c(c1)CC1(C2)C(=O)Nc2ncccc21)C(=O)c1cscn1` (stereo not shown) [Example 60, N-(2-((Methylamino)methyl)benzyl)-N-(2-oxo-2-((2′-oxo-1,1′,2′,3-tetrahydrospiro[indene-2,3′-pyrrolo[2,3-b]pyridin]-5-yl)amino)ethyl)thiazole-4-carboxamide], the IC50 was 7.08 nM.
As for `CNCc1ccccc1CN(CC(=O)Nc1ccc2c(c1)CC1(C2)C(=O)Nc2ncccc21)C(=O)c1csc(C)n1` (stereo not shown) [Example 61, 2-Methyl-N-(2-((methylamino)methyl)benzyl)-N-(2-oxo-2-((2′-oxo-1,1′,2′,3-tetrahydrospiro[indene-2,3′-pyrrolo[2,3-b]pyridin]-5-yl)amino)ethyl)thiazole-4-carboxamide], the IC50 is 219 nM.
On to `CNCc1ccccc1CN(CC(=O)Nc1ccc2c(c1)CC1(C2)C(=O)Nc2ncccc21)C(=O)c1ncsc1C` (stereo not shown) [Example 62, 5-Methyl-N-(2-((methylamino)methyl)benzyl)-N-(2-oxo-2-((2′-oxo-1,1′,2′,3-tetrahydrospiro[indene-2,3′-pyrrolo[2,3-b]pyridin]-5-yl)amino)ethyl)thiazole-4-carboxamide], for which the IC50 is 42.7 nM.
With `CNCc1ccccc1CN(CC(=O)Nc1ccc2c(c1)CC1(C2)C(=O)Nc2ncccc21)C(=O)C1CCCO1` (stereo not shown) [Example 63, N-(2-((Methylamino)methyl)benzyl)-N-(2-oxo-2-((2′-oxo-1,1′,2′,3-tetrahydrospiro[indene-2,3′-pyrrolo[2,3-b]pyridin]-5-yl)amino)ethyl)tetrahydrofuran-2-carboxamide], the IC50 was 53.7 nM.
`CNCc1ccccc1CN(CC(=O)Nc1ccc2c(c1)CC1(C2)C(=O)Nc2ncccc21)C(=O)C1CCCCO1` (stereo not shown) [Example 64, N-(2-((Methylamino)methyl)benzyl)-N-(2-oxo-2-((2′-oxo-1,1′,2′,3-tetrahydrospiro[indene-2,3′-pyrrolo[2,3-b]pyridin]-5-yl)amino)ethyl)tetrahydro-2H-pyran-2-carboxamide]: the IC50 is 85.1 nM.
Turning to `CNCc1ccccc1CN(CC(=O)Nc1ccc2c(c1)CC1(C2)C(=O)Nc2ncccc21)C(=O)C1CCCC1` (stereo not shown) [Example 65, N-(2-((methylamino)methyl)benzyl)-N-(2-oxo-2-((2′-oxo-1,1′,2′,3-tetrahydrospiro[indene-2,3′-pyrrolo[2,3-b]pyridin]-5-yl)amino)ethyl)cyclopentanecarboxamide], the IC50 is 2.82 nM.
With `CNCc1ccccc1CN(CC(=O)Nc1ccc2c(c1)CC1(C2)C(=O)Nc2ncccc21)C(=O)N1CCC(OC)C1` (stereo not shown) [Example 67, 3-Methoxy-N-[[2-(methylaminomethyl)phenyl]methyl]-N-[2-oxo-2-[(2-oxospiro[1H-pyrrolo[2,3-b]pyridine-3,2′-indane]-5′-yl)amino]ethyl]pyrrolidine-1-carboxamide], the IC50 is 64.6 nM.
On to `CNCc1ccccc1CN(CC(=O)Nc1ccc2c(c1)CC1(C2)C(=O)Nc2ncccc21)C(=O)C1CN(C(C)=O)C1` (stereo not shown) [Example 68, 1-(Acetyl)-N-[[2-(methylaminomethyl)phenyl]methyl]-N-[2-oxo-2-[(2-oxospiro[1H-pyrrolo[2,3-b]pyridine-3,2′-indane]-5′-yl)amino]ethyl]azetidine-3-carboxamide], for which the IC50 is 33.1 nM.
To `CNCc1ccccc1CN(CC(=O)Nc1ccc2c(c1)CC1(C2)C(=O)Nc2ncccc21)C(=O)C1CCCN1C(C)=O` (stereo not shown) [Example 69, 1-Acetyl-N-[[2-(methylaminomethyl)phenyl]methyl]-N-[2-oxo-2-[(2-oxospiro[1H-pyrrolo[2,3-b]pyridine-3,2′-indane]-5′-yl)amino]ethyl]pyrrolidine-2-carboxamide] belongs 129 nM; to `CNCc1ccccc1CN(CC(=O)Nc1ccc2c(c1)CC1(C2)C(=O)Nc2ncccc21)C(=O)C1CCN(C(=O)CN)CC1` (stereo not shown) [Example 70, 1-(2-aminoacetyl)-N-(2-((methylamino)methyl)benzyl)-N-(2-oxo-2-((2′-oxo-1,1′,2′,3-tetrahydrospiro[indene-2,3′-pyrrolo[2,3-b]pyridin]-5-yl)amino)ethyl)piperidine-4-carboxamide bis(2,2,2-trifluoroacetate)], 44.7 nM; to `CNCc1ccccc1CN(CC(=O)Nc1ccc2c(c1)CC1(C2)C(=O)Nc2ncccc21)C(=O)C1CCN(C(=O)N(C)C)CC1` (stereo not shown) [Example 71, N1,N1-dimethyl-N4-(2-((methylamino)methyl)benzyl)-N4-(2-oxo-2-((2′-oxo-1,1′,2′,3-tetrahydrospiro[indene-2,3′-pyrrolo[2,3-b]pyridin]-5-yl)amino)ethyl)piperidine-1,4-dicarboxamide 2,2,2-trifluoroacetate], 2.45 nM.
For the molecule `CNCc1ccccc1CN(CC(=O)Nc1ccc2c(c1)CC1(C2)C(=O)Nc2ncccc21)C(=O)C1CCN(C(=O)NC(C)C)CC1` (stereo not shown) [Example 73, N1-isopropyl-N4-(2-((methylamino)methyl)benzyl)-N4-(2-oxo-2-((2′-oxo-1,1′,2′,3-tetrahydrospiro[indene-2,3′-pyrrolo[2,3-b]pyridin]-5-yl)amino)ethyl)piperidine-1,4-dicarboxamide 2,2,2-trifluoroacetate], the IC50 is 8.32 nM.
Consider `CNCc1ccccc1CN(CC(=O)Nc1ccc2c(c1)CC1(C2)C(=O)Nc2ncccc21)C(=O)C1CCN(C(C)=O)C1` (stereo not shown) [Example 74, 1-acetyl-N-(2-((methylamino)methyl)benzyl)-N-(2-oxo-2-((2′-oxo-1,1′,2′,3-tetrahydrospiro[indene-2,3′-pyrrolo[2,3-b]pyridin]-5-yl)amino)ethyl)pyrrolidine-3-carboxamide 2,2,2-trifluoroacetate], for which the IC50 is 15.5 nM.
For the molecule `CNCc1ccccc1CN(CC(=O)Nc1ccc2c(c1)CC1(C2)C(=O)Nc2ncccc21)C(=O)C1(C(F)(F)F)CC1` (stereo not shown) [Example 75, N-[[2-(methylaminomethyl)phenyl]methyl]-N-[2-oxo-2-[(2-oxospiro[1H-pyrrolo[2,3-b]pyridine-3,2′-indane]-5′-yl)amino]ethyl]-1-(trifluoromethyl)cyclopropanecarboxamide 2,2,2-trifluoroacetate], the IC50 was 3.63 nM.
To `CNCc1ccccc1CN(CC(=O)Nc1ccc2c(c1)CC1(C2)C(=O)Nc2ncccc21)C(=O)C1(C(F)(F)F)CCC1` (stereo not shown) [Example 76, N-[[2-(methylaminomethyl)phenyl]methyl]-N-[2-oxo-2-[(2-oxospiro[1H-pyrrolo[2,3-b]pyridine-3,2′-indane]-5′-yl)amino]ethyl]-1-(trifluoromethyl)cyclobutanecarboxamide 2,2,2-trifluoroacetate] belongs 1.35 nM.
Turning to `CNCc1ccccc1CN(CC(=O)Nc1ccc2c(c1)CC1(C2)C(=O)Nc2ncccc21)C(=O)C12CC(N)(C1)C2` (stereo not shown) [Example 77, 3-amino-N-[[2-(methylaminomethyl)phenyl]methyl]-N-[2-oxo-2-[(2-oxospiro[1H-pyrrolo[2,3-b]pyridine-3,2′-indane]-5′-yl)amino]ethyl]bicyclo[1.1.1]pentane-1-carboxamide bis(2,2,2-trifluoroacetate)], the IC50 was 44.7 nM.
`CNCc1ccccc1CN(CC(=O)Nc1ccc2c(c1)CC1(C2)C(=O)Nc2ncccc21)C(=O)C12CC(C1)C2` (stereo not shown) [Example 78, N-(2-((methylamino)methyl)benzyl)-N-(2-oxo-2-((2′-oxo-1,1′,2′,3-tetrahydrospiro[indene-2,3′-pyrrolo[2,3-b]pyridin]-5-yl)amino)ethyl)bicyclo[1.1.1]pentane-1-carboxamide 2,2,2-trifluoroacetate]: the IC50 was 5.5 nM.
